Experimental data reported in US11696581B2, “Monoterpenoid/phenylpropanoid-containing compounds and methods of their making and use as seed treatments” (KITTRICH CORPORATION, priority 2016, dated 2023).

Legend:
Format in all cases: in vivo
[1] = tested on: Western corn rootworm larvae; assay: Western corn rootworm survival assay (treated corn seeds); conditions: corn seeds coated 1% weight/weight; 6 neonatal larvae per cup; 7 days at 28° C.; α=0.05; control survival 67.8±3.7%
Protocol: Solo® condiment cups with lids. Germination of seeds was performed by carefully applying 500 μL of de-ionized water in order to fully surround each seed with water at the bottom of the cup. Parafilm® wax was placed over the top of the cup to maintain moisture and encourage germination of the seeds. Cups containing moistened seeds were allowed to germinate in the dark for 3 days before the start of the assay. Six live neonatal Western corn rootworm larvae were carefully applied to the roots of germinated corn seeds for each cup. After applying the larvae to the roots, 30 g of dried soil, sieved with a 600-μm Fisher Brand sieve and moistened with 4.5 mL of water, was applied evenly throughout the cup. Organza was placed over the top of the cup and fastened in place with a cup lid. Cups were incubated at 28° C. in 40-50% humidity for 7 days. Surviving corn rootworm were enumerated and the average percentage survival was reported. A minimum of 10 replicates were performed for each treatment.

[2] = tested on: Western corn rootworm larvae; assay: Western corn rootworm repellency assay (treated vs untreated corn sides); conditions: one week; for repellency: larvae isolated from untreated end vs treated end: choice between treated and untreated corn, 30 larvae, control 52% treated side / 48% untreated side; for larval mortality (missing larvae declared dead) in repellency arena: one side treated seeds, control 20% declared dead
Text: Three treated seeds were germinated on one side of a plastic Genpack deli container (32 oz.) 5 days prior to infesting the container with western corn rootworm larvae. On the other side, three untreated seeds were germinated at the same time diagonally across from the treated seeds. Containers were infested by placing 30 rootworm into the middle of the container, on the top of the soil. Rootworm were allowed to choose which side to feed on primarily. Containers infested with western corn rootworm were incubated at 28° C. and 40±10% relative humidity for one week. After one week, containers were removed and soil was mechanically sifted through to quantify the number of living larvae. The total number of larvae present on the treated side vs. the untreated side were averaged from a minimum of three replicates. If repellency was observed (i.e. more rootworm found on the untreated side than the treated side), the experiment was repeated to confirm repellency in subsequent experiments. The number of rootworm missing were also enumerated. Data was averaged from a minimum of three replicates and over 90 larvae used in the total repellency assessment for each compound.

[3] = tested on: corn seeds; assay: Germination assays of coated corn seeds; conditions: 3 days dark then one week in soil, root mats and radicals emerged or not
Protocol: Germination of seeds was performed by carefully applying 500 μL of de-ionized water in order to fully surround each seed with water at the bottom of the cup. Parafilm wax was placed over the top of the cup to maintain moisture and encourage germination of the seeds. Cups containing moistened seeds were allowed to germinate in the dark for 3 days before 30 g of soil was introduced into the cup, with 4.5 mL of water added to the soil to moisten it. Seeds were allowed to grow for one week before removing the soil and assessing total germination. Germination was quantified as whether or not root mats and radicals emerged from the moistened seed casing. The total number of seeds in each cup (out of three seeds) that germinated were quantified. Over 4 replicates of this experiment were performed for each monoterpenoid derivative treatment screened.

Compound | larval survival compared to the control [1] | repellency: larvae isolated from untreated end vs treated end [2] | larval mortality (missing larvae declared dead) in repellency arena [2] | inhibition of germination of corn seedlings [3] | larvae associated with the treated corn side ([2]; average, choice arena, control approximately 52%) [%]
eugenyl succinate | significantly lower larval survival than the control | higher number of larvae to be isolated from the untreated end compared to the treated end | higher larval mortality that was statistically significant compared to the control |  | 
CC(C)=CCCC(C)CCOC(=O)CC(C)CCC=C(C)C (stereo not shown) [citronellyl citronellate] | significantly lower larval survival than the control |  |  |  | 
O=C(O)CCC(=O)OC/C=C/c1ccccc1 [cinnamyl hydrogen succinate] | significantly lower larval survival than the control |  |  | most significant inhibitors of germination of corn seedlings | 
Cc1ccc(C(C)C)c(OC(=O)CCC(=O)O)c1 [thymyl hydrogen succinate] | significantly lower larval survival than the control |  |  |  | 
CC(C)=CCCC(C)CC(=O)OCCOC(=O)CC(C)CCC=C(C)C (stereo not shown) [ethylene dicitronellate, Ethylene dicitronellate] | significantly lower larval survival than the control |  | higher larval mortality that was statistically significant compared to the control |  | 
O=C(/C=C/c1ccccc1)OC1C(OC(=O)/C=C/c2ccccc2)C(OC(=O)/C=C/c2ccccc2)C(OC(=O)/C=C/c2ccccc2)C(OC(=O)/C=C/c2ccccc2)C1OC(=O)/C=C/c1ccccc1 (stereo not shown) [hexacinnamoyl inositol, hexacinnamoylinositol] |  | higher number of larvae to be isolated from the untreated end compared to the treated end |  |  | 
C=CCc1ccc(OC(=O)CC(C)CCC=C(C)C)c(OC)c1 (stereo not shown) [eugenyl citronellate] |  |  |  | most significant inhibitors of germination of corn seedlings | 
Cc1ccc(C(C)C)c(OC(=O)/C=C/c2ccccc2)c1 [thymyl cinnamate] | significantly lower larval survival than the control | higher number of larvae to be isolated from the untreated end compared to the treated end |  |  | 
CCCCCCCCCCCCCC(=O)OCC=Cc1ccccc1 [cinnamyl myristate] | significantly lower larval survival than the control |  | higher larval mortality that was statistically significant compared to the control |  | 
CC(C)=CCCC(C)CC(=O)OC1C(OC(=O)CC(C)CCC=C(C)C)C(OC(=O)CC(C)CCC=C(C)C)C(OC(=O)CC(C)CCC=C(C)C)C(OC(=O)CC(C)CCC=C(C)C)C1OC(=O)CC(C)CCC=C(C)C (stereo not shown) [inositol hexacitronellate, hexacitronelloylinositol] | significantly lower larval survival than the control | higher number of larvae to be isolated from the untreated end compared to the treated end |  | most significant inhibitors of germination of corn seedlings | 22
